Patent US20230104311A1, “NOVEL 6-SUBSTITUTED 7-DEAZAPURINES AND CORRESPONDING NUCLEOSIDES AS MEDICAMENTS” (KATHOLIEKE UNIVERSITEIT LEUVEN, priority 2020, published 2023)
Where “and” joins values, the source holds several entries; their conditions need not be identical. Equal values may be shown once. Entries after “also recorded” stand apart in the source; their conditions may differ. Read-outs that look alike come from different tables or passages of the source.

Legend:
HCV [1] = details: anti-HCV in vitro; cited from earlier work
in vitro = details: human
[2] = system: Influenza A virus strain California/07/2009; assay: Inhibition of in vitro replication of Influenza A virus; assay type: cell-based; details: for EC50: Influenza A virus strain California/07/2009
norovirus = details: read-out: EC50 norovirus replication; cited from earlier work
human norovirus (HuNoV) = assay: Inhibition of in vitro replication of genogroup 1 NoV in HG23 NoV replicon cells (qRT-PCR of intracellular RNA); assay type: cell-based; details: for inhibitory activity against human norovirus (in words): HuNoV assay
[3] = Cytotoxicity (CC50) determined in parallel in uninfected cells (β-actin toxicity); details: human
uninfected cells [4] = assay: as above; details: HuNoV assay
[5] = system: MERS Coronavirus strain EMC; assay: microbe, parasite or virus in culture; assay type: cell-based
uninfected cells [6] = system: uninfected cells
HCV [7] = details: read-out: EC50 HCV in cell cultures; cited from earlier work
dengue virus (DENV2) = details: read-out: IC50 dengue virus (DENV2) replication; cited from earlier work
poliovirus (PV) = details: read-out: IC50 poliovirus (PV) replication; cited from earlier work
murine norovirus (MNV) = details: read-out: EC50 murine norovirus (MNV) polymerase; cited from earlier work
HuNoV = details: human B cell BJAB cell line; read-out: EC50 HuNoV replication; cited from earlier work
[8] = HuNoV, HG23 NoV replicon cells, read-out: EC50 (effective concentration to inhibit the replication of the virus by 50%)
[9] = Norovirus, HG23, read-out: EC50 (effective concentration to inhibit the replication of the virus by 50%), HuNoV, HG23 NoV replicon cells
[10] = Norovirus, HuNoV, HG23 NoV replicon cells, read-out: EC90 (effective concentration to inhibit the replication of the virus by 90%)
[11] = Norovirus, HG23, HuNoV, HG23 NoV replicon cells, read-out: EC50 (effective concentration to inhibit the replication of the virus by 50%)
[12] = HuNoV, HG23 NoV replicon cells, read-out: EC90 (effective concentration to inhibit the replication of the virus by 90%)

Which “improvement in potency relative to the parent compound 1” value (HCV [1]) does the source give for C[C@@]1(O)[C@H](O)[C@@H](CO)O[C@H]1c1cc(C(N)=O)c2c(N)ncnn12 [7-carboamido analogue 2] here?
Its value is 40 fold.

Which CC50 (in vitro) does the source give for NC(=O)c1ncn([C@@H]2O[C@H](CO)[C@@H](O)[C@H]2O)n1 [Ribavirin, reference compound] here?
The CC50 was > 1000 µM.

What about the EC50 [2] of the same compound?
The EC50 was 3.6 µM.

And the EC50 (norovirus)?
The EC50 was 43 µM.

Which “inhibitory activity against human norovirus (in words)” value (human norovirus (HuNoV)) does the source give for OC[C@H]1O[C@@H](n2ccc3c(C4CCCCC4)ncnc32)[C@H](O)[C@@H]1O [Compound 11l, 6-Cyclohexyl-9-β-D-ribofuranosyl-7-deazapurine] here?
Its value is “potent activity”.

What about the EC50 (human norovirus (HuNoV); [8]) of the same compound?
The EC50 was 0.18 µM.

What about the EC50 (human norovirus (HuNoV); [9]) of the same compound?
Its EC50 is 0.18 µM.

And the EC90 (human norovirus (HuNoV); [10])?
Its EC90 is 7.24 µM.

What about the CC50 ([3]; uninfected cells) of the same compound?
Its CC50 is 42.4 µM.

And the “cytotoxicity (in words)” value (uninfected cells [4])?
Its value is “did not display significant cytotoxicity; also recorded: without significant cytotoxicity”.

For OC[C@H]1O[C@@H](n2ccc3c(C4CCCC4)ncnc32)[C@H](O)[C@@H]1O [Compound 11k, 6-Cyclopentyl-9-β-D-ribofuranosyl-7-deazapurine], which EC50 (human norovirus (HuNoV); [11]) is on record?
Its EC50 is > 100 µM.

What about the EC90 (human norovirus (HuNoV); [10]) of the same compound?
Its EC90 is > 100 µM.

And the CC50 ([3]; uninfected cells)?
The CC50 was > 100 µM.

With CCCCCc1ncnc2c1ccn2[C@@H]1O[C@H](CO)[C@@H](O)[C@H]1O [Compound 11f, 6-Pentyl-9-β-D-ribofuranosyl-7-deazapurine] as the compound, how does the EC50 (human norovirus (HuNoV); [9]) read?
Its EC50 is 0.084 µM.

What about the EC90 (human norovirus (HuNoV); Norovirus, HG23, read-out: EC90 (effective concentration to inhibit the replication of the virus by 90%)) of the same compound?
The EC90 was > 100 µM.

What about the CC50 ([3]; uninfected cells) of the same compound?
Its CC50 is > 100 µM.

For CC(C)Cc1ncnc2c1ccn2[C@@H]1O[C@H](CO)[C@@H](O)[C@H]1O [Compound 11i, 6-Isobutyl-9-β-D-ribofuranosyl-7-deazapurine], which EC50 (human norovirus (HuNoV); [11]) is on record?
Its EC50 is 0.002 µM.

And the EC90 (human norovirus (HuNoV); [10])?
Its EC90 is > 100 µM.

And the CC50 ([3]; uninfected cells)?
The CC50 was > 100 µM.

With CCc1ncnc2c1ccn2[C@@H]1O[C@H](CO)[C@@H](O)[C@H]1O [Compound 11d, 6-Ethyl-9-β-D-ribofuranosyl-7-deazapurine] as the compound, how does the CC50 (in vitro) read?
Its CC50 is > 100 µM.

And the “inhibitory activity against Influenza A virus (in words)” value [2]?
The value was “moderate inhibitory activity”.

And the EC50 [2]?
Its EC50 is 0.42 µM.

And the EC50 (human norovirus (HuNoV); [9])?
The EC50 was 0.023 µM.

And the EC90 (human norovirus (HuNoV); [10])?
The EC90 was 0.495 µM.

What about the “inhibitory activity against MERS Coronavirus (in words)” value [5] of the same compound?
Its value is “moderate inhibitory activity”.

And the EC50 ([5]; Middle East respiratory syndrome-related coronavirus)?
Its EC50 is 9.2 µM.

And the CC50 [3]?
The CC50 was 10.2 µM.

And the “cytotoxicity (in words)” value (uninfected cells [4])?
Its value is “did not display significant cytotoxicity”.

For OC[C@H]1O[C@@H](n2ccc3c(C4CC4)ncnc32)[C@H](O)[C@@H]1O [Compound 11j, 6-Cycloproyl-9-β-D-ribofuranosyl-7-deazapurine], which CC50 (uninfected cells [6]) is on record?
Its CC50 is > 100 µM.

And the EC50 (human norovirus (HuNoV); [8])?
Its EC50 is 0.205 µM.

And the EC90 (human norovirus (HuNoV); [12])?
Its EC90 is > 100 µM.

Which results are given for CCCCCCc1ncnc2c1ccn2[C@@H]1O[C@H](CO)[C@@H](O)[C@H]1O [Compound 11g, 6-Hexyl-9-β-D-ribofuranosyl-7-deazapurine]?
EC50 (human norovirus (HuNoV); [11]): 0.13 µM; EC90 (human norovirus (HuNoV); [10]): 57.6 µM; CC50 ([3]; uninfected cells): 62.3 µM

For C[C@@]1(O)[C@H](O)[C@@H](CO)O[C@H]1c1ccc2c(N)ncnn12 [2′-C-methyl-4-aza-7,9-dideazaadenosine], which EC50 (HCV [7]) is on record?
Its EC50 is 1.98 µM.

What does the source list for Cc1ncnc2c1ccn2[C@@H]1O[C@H](CO)[C@@H](O)[C@H]1O [Compound 3]?
IC50 (dengue virus (DENV2)): 0.039 µM; IC50 (poliovirus (PV)): 0.011 µM

For OC[C@H]1O[C@@H](n2ccc3c(-c4ccccc4)ncnc32)[C@H](O)[C@@H]1O [Compound 11o, 6-Phenyl-9-β-D-ribofuranosyl-7-deazapurine], which EC50 (human norovirus (HuNoV); [11]) is on record?
Its EC50 is 0.211 µM.

And the EC90 (human norovirus (HuNoV); [10])?
Its EC90 is 61.9 µM.

And the CC50 ([3]; uninfected cells)?
Its CC50 is > 100 µM.

For C[C@@]1(O)[C@H](O)[C@@H](CO)O[C@H]1n1ccc(N)nc1=O [2’Cmethyl Cytidine, 2′-C-Methyl-cytidine, reference compound], which EC50 (murine norovirus (MNV)) is on record?
Its EC50 is 2 µM.

And the EC50 (human norovirus (HuNoV); [11])?
Its EC50 is 2.63 µM.

What about the EC90 (human norovirus (HuNoV); [10]) of the same compound?
Its EC90 is 13.8 µM.

And the EC50 (HuNoV)?
The EC50 was 0.3 µM.

And the CC50 ([3]; uninfected cells)?
Its CC50 is > 25 µM.

Which results are given for CCCc1ncnc2c1ccn2[C@@H]1O[C@H](CO)[C@@H](O)[C@H]1O [Compound 11e, 6-Propyl-9-β-D-ribofuranosyl-7-deazapurine]?
inhibitory activity against human norovirus (in words) (human norovirus (HuNoV)): potent activity; EC50 (human norovirus (HuNoV); [9]): 0.016 µM; EC90 (human norovirus (HuNoV); [10]): 19 µM; CC50 ([3]; uninfected cells): > 100 µM; cytotoxicity (in words) (uninfected cells [4]): did not display significant cytotoxicity; also recorded: without significant cytotoxicity

For CC(C)c1ccc(-c2ncnc3c2ccn3[C@@H]2O[C@H](CO)[C@@H](O)[C@H]2O)cc1 [Compound 11m, 6-(4-isoproylphenyl)-9-β-D-ribofuranosyl-7-deazapurine], which CC50 (uninfected cells [6]) is on record?
The CC50 was > 100 µM.

And the EC50 (human norovirus (HuNoV); [8])?
The EC50 was 0.002 µM and < 0.001 µM.

What about the EC90 (human norovirus (HuNoV); [12]) of the same compound?
Its EC90 is 55 µM.

Which EC90 (human norovirus (HuNoV); [10]) does the source give for Cc1ccc(-c2ncnc3c2ccn3[C@@H]2O[C@H](CO)[C@@H](O)[C@H]2O)cc1 [Compound 11a, 6-(4-Methylphenyl)-9-β-D-ribofuranosyl-7-deazapurine] here?
The EC90 was > 100 µM.

And the CC50 ([3]; uninfected cells)?
The CC50 was > 100 µM.

For CN(C)c1ccc(-c2ncnc3c2ccn3[C@@H]2O[C@H](CO)[C@@H](O)[C@H]2O)cc1 [Compound 11p, 6-(4-(Dimethylamino)phenyl)-9-β-D-ribofuranosyl-7-deazapurine], which EC50 (human norovirus (HuNoV); [11]) is on record?
The EC50 was 92.4 µM.

What about the EC90 (human norovirus (HuNoV); [10]) of the same compound?
Its EC90 is > 100 µM.

What about the CC50 ([3]; uninfected cells) of the same compound?
Its CC50 is > 100 µM.

Which EC50 (human norovirus (HuNoV); [11]) does the source give for CCc1ccc(-c2ncnc3c2ccn3[C@@H]2O[C@H](CO)[C@@H](O)[C@H]2O)cc1 [Compound 11q, 6-(4-Ethylphenyl)-9-β-D-ribofuranosyl-7-deazapurine] here?
Its EC50 is 57.8 µM.

What about the EC90 (human norovirus (HuNoV); [10]) of the same compound?
The EC90 was > 100 µM.

And the CC50 ([3]; uninfected cells)?
Its CC50 is > 100 µM.

What does the source list for Cc1ncnc2c1ccn2[C@@H]1O[C@H](CO)[C@@H](O)[C@H]1O [Compound 11b, 6-Methyl-9-β-D-ribofuranosyl-7-deazapurine]?
inhibitory activity against human norovirus (in words) (human norovirus (HuNoV)): good activity; EC50 (human norovirus (HuNoV); [9]): 0.012 µM; EC90 (human norovirus (HuNoV); [10]): 0.068 µM; CC50 ([3]; uninfected cells): 0.53 µM

For COc1ccc(-c2ncnc3c2ccn3[C@@H]2O[C@H](CO)[C@@H](O)[C@H]2O)cc1 [Compound 11n, 6-(4-Methoxylphenyl)-9-β-D-ribofuranosyl-7-desazapurine], which EC50 (human norovirus (HuNoV); [11]) is on record?
Its EC50 is 0.094 µM.

What about the EC90 (human norovirus (HuNoV); [10]) of the same compound?
The EC90 was > 100 µM.

And the CC50 ([3]; uninfected cells)?
The CC50 was > 100 µM.

With CC(C)c1ncnc2c1ccn2[C@@H]1O[C@H](CO)[C@@H](O)[C@H]1O [Compound 11c, 6-Isopropyl-9-β-D-ribofuranosyl-7-deazapurine] as the compound, how does the “inhibitory activity against human norovirus (in words)” value (human norovirus (HuNoV)) read?
The value was “potent activity”.

And the EC50 (human norovirus (HuNoV); [9])?
Its EC50 is 0.024 µM.

And the EC90 (human norovirus (HuNoV); [10])?
The EC90 was 2.69 µM.

What about the CC50 ([3]; uninfected cells) of the same compound?
The CC50 was > 100 µM.

What about the “cytotoxicity (in words)” value (uninfected cells [4]) of the same compound?
Its value is “did not display significant cytotoxicity; also recorded: without significant cytotoxicity”.
